Data published in patent US10695348B2, “Sulfonyl pyridyl TRP inhibitors” (Genentech, Inc., priority 2017, dated 2020).
≈ marks a conversion by molar mass, not a printed value.

Tests used:
[1] = target: T1, human TRPA1 (Homo sapiens, UniProt O75762); test: FLIPR Tetra calcium influx assay, CHO cells expressing TRPA1, cinnamaldehyde agonist (hTRPA1 CHO Ca2+ AUC EVO); format: cell-based
T1 construct: expressed in transfected cells; host or cells: CHO cells
Experimental: The IC50 ([…]) of compounds on the human and rat TRPA1 channels were determined using a FLIPR Tetra instrument. CHO cells expressing TRPA1 were plated into 384-well plates, incubated overnight at 37° C., and loaded with BD calcium indicator dye for 1 hr at 37° C. followed by 15 minutes at room temperature. The assay buffer was Hank's Balanced Salt Solution (HBSS) containing 20 mM HEPES (pH readjusted to 7.4) along with 0.02% BSA.
Following dye load and plate cool down, compounds were added to the cells using FLIPR Tetra. Plates were then incubated with compounds for 20 minutes at room temperature prior to adding agonist. Following this incubation, about an EC80 concentration of cinnamaldehyde (75 uM for human TRPA1 and 45 uM for rat TRPA1) was added to active the channels and block of cinnamaldehyde induced calcium influx was measured.
The IC50 results were fit with a standard Hill function, keeping the Hill coefficient (n) fixed to 1.5. Fixing the Hill coefficient will generally reduce variability of the IC50 determination. The IC50 results were individually examined to make sure the MIN and MAX points were set correctly prior to validation of the results.

[2] = Human protein plasma binding; format: in vitro ADME; conditions: read-out: hPPB (human protein plasma binding) (converted)
Experimental: Certain pharmacokinetic attributes were evaluated for sulfonyl pyridyl compounds of the present disclosure. The results are shown in Table 3 below where: “hTRPA1” refers to IC50 in nM; “hPPB” refers to human protein plasma binding in percent; “Corrected IC50” refers to the hTRPA1 values corrected for hPPB; “HLM-CLhep” refers to human liver microsome clearance in mL/min/kg; “K.Sol” refers to estimated aqueous solubility in μM; and “NR” refers to not run.
Human protein plasma binding may be measured according to the methods described by Banker et al., “Plasma/Serum Protein Binding Determinations,” Current Drug Metabolism (2008), 9, 854-859, and Kariv et al., “Development of a high throughput equilibrium dialysis method,” J. Pharm Sci. (2001) May; 90(5):580-87, as well as using commercially available assay kits by Wyatt, Cerep, Cyprotex and others.

[3] = Human liver microsome clearance / stability; format: in vitro ADME; conditions: human liver microsomes
From the text: Human liver microsome clearance (mL/min/kg) may be measured according to the method described by Ackley et al, “Metabolic Stability Assessed by Liver Microsomes and Hepatocytes”, in “Optimization in Drug Discovery” in the “Methods in Pharmacology and Toxicology” series (ISSN 1557-2153), pp. 151-162 (Yan, Ed., Print ISBN 978-1-58829-332-9, Springer (2004), as well as by using commercially available assay kits by Cerep, Cyprotex, Bd Bioscience and others.
Human liver microsome HLM stability may be measured as using the procedure of Ackley et al. as described above.

[4] = Aqueous solubility (K. Sol); format: physicochemical; conditions: aqueous medium (not further specified), kinetic from dmso stock; read-out: K. Sol (estimated aqueous solubility)
From the text: Aqueous solubility may be determined using the procedures reported by Alsenz et al., “High throughput solubility measurement in drug discovery and development,” Advanced Drug Delivery Reviews (2007) 59, 546-568 and Kibbey et al., “An Integrated Process for Measuring the Physicochemical Properties of Drug Candidates in a Preclinical Discovery Environment,” J. Pharmaceutical Sci. (2001) 90(8), 1164-1175.

[5] = target: T1, human TRPA1; test: Human Ca2+ MAX IC50 calcium assay; format: cell-based; conditions: Table 5; read-out: H Ca2+ MAX (human CA2+ MAX IC50)
From the text: Human Ca2+ MAX IC50 may be measured using one of the commercially available calcium assay kits provided by Molecular Devices, Abcam, Bio-Rad, Biovision, Enzo Lifesciences, Abnova, Sigma-Aldrich, or others.

[6] = GSH (glutathione) trapping of reactive metabolites; format: in vitro ADME; conditions: in vitro incubation with glutathione as trapping reagent
Experimental: GSH trapping in a method for screening reactive metabolites for the potential to cause adverse drug reactions. Reactive metabolites may implicate clinical toxicity through drug compound bioactivation or inactivation of proteins. One such assessment utilizes in vitro incubations comprising glutathione (GSH) as a trapping reagent. LC/MS may be used to detect and characterize reactive intermediate formation as indicated by trapped glutathione adducts, as described by Yan et al., “Stable Isotope Trapping and High Throughput Screenings of Reactive Metabolites Using the Active MS Signature,” Anal. Chem. (2004), 76, 6835-6847.

[7] = Table 3, read-out: hTRPA1 (IC50)
[8] = calculated from hTRPA1 IC50 and hPPB, read-out: Corrected IC50 (hTRPA1 values corrected for hPPB)

T1 sequence (O75762 whole entry): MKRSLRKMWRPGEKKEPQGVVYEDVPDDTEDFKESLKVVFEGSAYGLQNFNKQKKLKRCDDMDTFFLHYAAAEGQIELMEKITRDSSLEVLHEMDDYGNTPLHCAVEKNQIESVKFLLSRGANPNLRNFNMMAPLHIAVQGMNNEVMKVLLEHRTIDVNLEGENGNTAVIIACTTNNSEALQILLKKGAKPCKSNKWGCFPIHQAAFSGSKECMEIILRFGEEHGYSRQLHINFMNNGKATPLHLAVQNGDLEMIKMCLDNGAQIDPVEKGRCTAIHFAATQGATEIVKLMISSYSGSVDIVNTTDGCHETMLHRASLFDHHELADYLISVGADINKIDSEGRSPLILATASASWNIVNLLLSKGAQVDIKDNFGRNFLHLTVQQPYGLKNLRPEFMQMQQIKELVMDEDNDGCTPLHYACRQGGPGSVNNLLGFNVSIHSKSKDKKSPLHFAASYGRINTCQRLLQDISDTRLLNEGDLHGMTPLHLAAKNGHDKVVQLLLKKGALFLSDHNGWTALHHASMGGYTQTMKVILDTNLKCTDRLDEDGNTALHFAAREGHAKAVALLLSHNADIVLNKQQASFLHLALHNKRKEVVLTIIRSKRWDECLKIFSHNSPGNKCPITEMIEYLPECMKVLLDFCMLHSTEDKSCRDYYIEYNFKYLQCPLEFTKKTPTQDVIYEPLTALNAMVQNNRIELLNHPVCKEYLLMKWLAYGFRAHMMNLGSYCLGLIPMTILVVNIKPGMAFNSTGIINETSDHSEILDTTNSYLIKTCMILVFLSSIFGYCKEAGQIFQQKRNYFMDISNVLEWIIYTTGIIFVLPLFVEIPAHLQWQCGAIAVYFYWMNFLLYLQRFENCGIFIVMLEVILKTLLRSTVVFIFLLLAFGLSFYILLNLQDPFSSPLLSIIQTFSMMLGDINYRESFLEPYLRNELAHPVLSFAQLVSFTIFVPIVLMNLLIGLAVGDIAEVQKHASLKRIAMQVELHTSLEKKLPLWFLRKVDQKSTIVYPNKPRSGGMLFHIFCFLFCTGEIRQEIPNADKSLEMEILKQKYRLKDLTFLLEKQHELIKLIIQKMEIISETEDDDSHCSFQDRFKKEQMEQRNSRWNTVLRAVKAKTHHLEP

SMILES: C[C@H]1[C@H](F)C[C@@H](C(=O)NCc2cc(-c3cnc(C(F)(F)F)nc3)cnc2C(F)F)N1S(=O)(=O)c1ccc(F)cn1 (single isomer, unassigned) [Pyridyl Sulfonamide 3]
- IC50 [1, 7]: 329 nM
- IC50 [1, 8]: 1940 nM
- fraction unbound [2]: 0.17

SMILES: C[C@H]1[C@H](F)C[C@@H](C(=O)NCc2cc(-c3cnc(C(F)(F)F)nc3)ncc2C(F)(F)F)N1S(=O)(=O)c1ccc(F)cn1 (single isomer, unassigned) [Pyridyl Sulfonamide 1]
- IC50 [1, 7]: 7.9 nM
- IC50 [1, 8]: 161 nM
- fraction unbound [2]: 0.049
- HLM-CLhep (human liver microsome clearance) ([3]; Table 3): 4 mL/min/kg
- solubility [4]: 30 µM (≈ 18.3 µg/mL)

SMILES: C[C@H]1[C@H](F)C[C@@H](C(=O)NCc2cc(-c3cnc(C(F)(F)F)nc3)ncc2C(F)(F)F)N1S(=O)(=O)c1ccc(Cl)nc1 [Compound 5]
- HLM (human liver microsome stability) ([3]; Table 5): 6.6 mL/min/kg
- IC50 [5]: 5 nM
- GSH trapping (glutathione trapping) [6]: positive

SMILES: C[C@H]1[C@H](F)C[C@@H](C(=O)NCc2cc(-c3cnc(C(F)(F)F)nc3)ncc2F)N1S(=O)(=O)c1ccc(F)cn1 (single isomer, unassigned) [Pyridyl Sulfonamide 2]
- IC50 [1, 7]: 404 nM
- IC50 [1, 8]: 5400 nM
- fraction unbound [2]: 0.075
- solubility [4]: 4 µM (≈ 2.24 µg/mL)
